SMILES strings stand for the structures.

Holding throughout (format): cell-based, human
One test has as its system pY467/199 PIK3R1/3. In words: Western blot, phospho-Y467/199 PIK3R1/3. The settings on record: melanoma cell lines; 0.5 µM, 5 hrs. The protocol: (§1) We used standard techniques to identify changes in intracellular signaling in response to various treatments. Briefly, melanoma cells were incubated with test compounds, using DMSO as a control, collected by scraping on ice, and lysed in RIPA buffer supplemented with protease and phosphatase inhibitors (MA #78428, and #78425, respectively, Thermo Fisher Scientific, Waltham, MA). Protein concentrations were measured with the BioRad kit (Bio-Rad Laboratories, Hercules, CA), SDS sample buffer was added, extracts were heated at 95°C, sonicated and centrifuged. Cell extracts (20 µg/lane) were fractionated in 3%–8% or 4–12 % tris-acetate gel (NP0006, NuPAGE Life Technologies). […]
On the technique in general: A western blot detects proteins with antibodies after separation by electrophoresis.

The test system of a further test is pERK T202/Y204. The test can be described thus: Western blot, phospho-MEK and phospho-ERK. The settings on record: melanoma cells; 0.5 µM or 1 µM, 2-72 hours. The protocol:
We used standard techniques to identify changes in intracellular signaling in response to various treatments. Briefly, melanoma cells were incubated with test compounds, using DMSO as a control, collected by scraping on ice, and lysed in RIPA buffer supplemented with protease and phosphatase inhibitors (MA #78428, and #78425, respectively, Thermo Fisher Scientific, Waltham, MA). Protein concentrations were measured with the BioRad kit (Bio-Rad Laboratories, Hercules, CA), SDS sample buffer was added, extracts were heated at 95°C, sonicated and centrifuged. Cell extracts (20 µg/lane) were fractionated in 3%–8% or 4–12 % tris-acetate gel (NP0006, NuPAGE Life Technologies). We probed with the following primary antibodies: phospho-SRC Tyr416 (CST #2101S), pSRC Tyr527 (#2105), SRC (#2108), pPI3K p85 Y458/p55 Y199 (#4228), LYN (C13F9, #2796), FYN (#4023), phospho-MEK1/2 pSer217/221 (#9121), MEK1/2, phospho-ERK2 pThr202/Tyr204 (#9101), ERK1/2 (#9107), phospho-p38 kinase T180/Y182 (#9216), p38 kinase (#9212), PP2A (#2259), pSHP2 Y542 (#3751), SHP2 (D50F2, #3397), ERBB2 (D8F12 XP(R), #4290), phospho-ERBB2 Y1196 (D66B7 #6942), MYC (D84C12, #5605); GAPDH (14C10, #2118), all from Cell Signaling Technology, Beverly, MA; phospho-PP2A Y307 (AF3989), and MITF (clone D5, #AF5769) from R&D Systems, Inc., Minneapolis, MN; p27KIP1 (#10241) and YES (#610375) from BD Biosciences, San Jose, CA; Cyclin D1 (#04-221) and β-actin (mouse mAb A5316) from MilliporeSigma, St. Louis, MO; PI3K Antibody (p85 alpha, NSJ R30480) from Bioreagents, 9921 Carmel Mountain Rd #352, San Diego, CA. All antibodies were used at the concentrations recommended by the manufacturers.

Another test concerns phospho-PP2A Y307. In words: Western blot, inactivated PP2A. The settings on record: YUSIK and YUSIV melanoma cells. The protocol: as §1

As to `Nc1ncnc2c1c(-c1ccc(Oc3ccccc3)cc1)nn2C[C@@H]1SSC[C@@H]1O` [SAB298, (3S, 4S)-3-((4-amino-3-(4-phenoxyphenyl)-1H-pyrazolo[3,4-d]pyrimidin-1-yl)methyl)-1,2-dithiolan-4-ol], the “phospho-Y467/199 PIK3R1/3 level” value with pY467/199 PIK3R1/3 is on record as “suppressed PI3K”. In addition, in the test on pERK T202/Y204, the “phospho-MEK and phospho-ERK (pERK T202/Y204) levels” value was “increased, rather than decreased”. The “inactivated PP2A (phospho-PP2A Y307) level” value in the test with phospho-PP2A Y307 is given as “increase in the levels of inactivated PP2A”.

Values taken from PMC6481345, “A novel anti-melanoma SRC-family kinase inhibitor” (Oncotarget, 2019).
